Measurements reported in PubChem BioAssay AID1963830 (Molecular Pharmacology Branch, DTP, NCI, 2024).

System: 922993-354-T-J3-PDC complex spheroid viability
Experiment: Anticancer human tumor 922993-354-T-J3-PDC patient-derived endometrial carcinoma cell line growth inhibition [POLQ]
Settings: for IC50: curve of first compound; for viability, T/C: stronger effect = lower value
How it was run: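 Complex spheroid viability model combining PDC tumour cells with endothelial (HUVEC) and MSC stromal cells. Novobiocin, ART-558 or RP6685 were tested singly and in combination with standard and investigational anticancer drugs. Each was titrated in half-log steps from near clinical Cmax, or from 10 microM where Cmax was unknown.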

[1] = second compound 0.0316 µM, first compound 0.0316 µM
[2] = second compound 0.0316 µM, first compound 0.1 µM
[3] = second compound 0.0316 µM, first compound 0.316 µM
[4] = second compound 0.0316 µM, first compound 1 µM
[5] = second compound 0.0316 µM, first compound 3.16 µM
[6] = second compound 0.0316 µM, first compound 10 µM
[7] = second compound 0.1 µM, first compound 0.0316 µM
[8] = second compound 0.1 µM, first compound 0.1 µM
[9] = second compound 0.1 µM, first compound 0.316 µM
[10] = second compound 0.1 µM, first compound 1 µM
[11] = second compound 0.1 µM, first compound 3.16 µM
[12] = second compound 0.1 µM, first compound 10 µM
[13] = second compound 0.316 µM, first compound 0.0316 µM
[14] = second compound 0.316 µM, first compound 0.1 µM
[15] = second compound 0.316 µM, first compound 0.316 µM
[16] = second compound 0.316 µM, first compound 1 µM
[17] = second compound 0.316 µM, first compound 3.16 µM
[18] = second compound 0.316 µM, first compound 10 µM
[19] = second compound 1 µM, first compound 0.0316 µM
[20] = second compound 1 µM, first compound 0.1 µM
[21] = second compound 1 µM, first compound 0.316 µM
[22] = second compound 1 µM, first compound 1 µM
[23] = second compound 1 µM, first compound 3.16 µM
[24] = second compound 1 µM, first compound 10 µM
[25] = second compound 3.16 µM, first compound 0.0316 µM
[26] = second compound 3.16 µM, first compound 0.1 µM
[27] = second compound 3.16 µM, first compound 0.316 µM
[28] = second compound 3.16 µM, first compound 1 µM
[29] = second compound 3.16 µM, first compound 3.16 µM
[30] = second compound 3.16 µM, first compound 10 µM
[31] = second compound 10 µM, first compound 0.0316 µM
[32] = second compound 10 µM, first compound 0.1 µM
[33] = second compound 10 µM, first compound 0.316 µM
[34] = second compound 10 µM, first compound 1 µM
[35] = second compound 10 µM, first compound 3.16 µM
[36] = second compound 10 µM, first compound 10 µM
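Note: spheroids exposed to the agents for one week.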
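Throughout, for viability, T/C: 100% = DMSO vehicle control wells.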

CCc1cc2c(N3CCc4c(cc(Cn5ccnc5)cc4-c4cn(C)nc4C(F)(F)F)C3=O)cc(C)nc2c(OC)n1 + Nc1ccc(C#CCN(C(=O)Cc2ncc(C(F)(F)F)cc2C(F)(F)F)c2ccc(F)cc2)nn1
IC50 (second compound 0.0316 µM): > 10 µM
IC50 (second compound 0.1 µM): > 10 µM
IC50 (second compound 0.316 µM): > 10 µM
IC50 (second compound 1 µM): > 10 µM
IC50 (second compound 3.16 µM): > 10 µM
IC50 (second compound 10 µM): > 10 µM
viability, T/C [1]: 103%
viability, T/C [2]: 106%
viability, T/C [3]: 105%
viability, T/C [4]: 110%
viability, T/C [5]: 107%
viability, T/C [6]: 101%
viability, T/C [7]: 108%
viability, T/C [8]: 106%
viability, T/C [9]: 108%
viability, T/C [10]: 105%
viability, T/C [11]: 101%
viability, T/C [12]: 102%
viability, T/C [13]: 103%
viability, T/C [14]: 98.1%
viability, T/C [15]: 105%
viability, T/C [16]: 106%
viability, T/C [17]: 109%
viability, T/C [18]: 104%
viability, T/C [19]: 102%
viability, T/C [20]: 100%
viability, T/C [21]: 107%
viability, T/C [22]: 107%
viability, T/C [23]: 106%
viability, T/C [24]: 99.1%
viability, T/C [25]: 99.8%
viability, T/C [26]: 107%
viability, T/C [27]: 102%
viability, T/C [28]: 105%
viability, T/C [29]: 103%
viability, T/C [30]: 99.6%
viability, T/C [31]: 99%
viability, T/C [32]: 98.3%
viability, T/C [33]: 100%
viability, T/C [34]: 102%
viability, T/C [35]: 99.3%
viability, T/C [36]: 92%

CCc1cc2c(N3CCc4c(cc(Cn5ccnc5)cc4-c4cn(C)nc4C(F)(F)F)C3=O)ccnc2c(OC)n1 + Nc1ccc(C#CCN(C(=O)Cc2ncc(C(F)(F)F)cc2C(F)(F)F)c2ccc(F)cc2)nn1
IC50 (second compound 0.0316 µM): > 10 µM
IC50 (second compound 0.1 µM): > 10 µM
IC50 (second compound 0.316 µM): > 10 µM
IC50 (second compound 1 µM): > 10 µM
IC50 (second compound 3.16 µM): > 10 µM
IC50 (second compound 10 µM): > 10 µM
viability, T/C [1]: 104%
viability, T/C [2]: 103%
viability, T/C [3]: 105%
viability, T/C [4]: 107%
viability, T/C [5]: 107%
viability, T/C [6]: 102%
viability, T/C [7]: 106%
viability, T/C [8]: 102%
viability, T/C [9]: 107%
viability, T/C [10]: 108%
viability, T/C [11]: 106%
viability, T/C [12]: 101%
viability, T/C [13]: 105%
viability, T/C [14]: 102%
viability, T/C [15]: 103%
viability, T/C [16]: 105%
viability, T/C [17]: 103%
viability, T/C [18]: 99.6%
viability, T/C [19]: 105%
viability, T/C [20]: 105%
viability, T/C [21]: 102%
viability, T/C [22]: 108%
viability, T/C [23]: 105%
viability, T/C [24]: 94.3%
viability, T/C [25]: 102%
viability, T/C [26]: 99.5%
viability, T/C [27]: 104%
viability, T/C [28]: 99%
viability, T/C [29]: 106%
viability, T/C [30]: 97.5%
viability, T/C [31]: 99.2%
viability, T/C [32]: 102%
viability, T/C [33]: 99.4%
viability, T/C [34]: 96.6%
viability, T/C [35]: 100%
viability, T/C [36]: 91%

COc1ccc([C@@H](O)c2cc(-c3ncnc4cc(N5CCOCC5)ccc34)c(F)cc2Cl)nn1 + Nc1ccc(C#CCN(C(=O)Cc2ncc(C(F)(F)F)cc2C(F)(F)F)c2ccc(F)cc2)nn1
IC50 (second compound 0.0316 µM): > 10 µM
IC50 (second compound 0.1 µM): > 10 µM
IC50 (second compound 0.316 µM): > 10 µM
IC50 (second compound 1 µM): > 10 µM
IC50 (second compound 3.16 µM): > 10 µM
IC50 (second compound 10 µM): > 10 µM
viability, T/C [1]: 103%
viability, T/C [2]: 103%
viability, T/C [3]: 98%
viability, T/C [4]: 100%
viability, T/C [5]: 91.3%
viability, T/C [6]: 73.8%
viability, T/C [7]: 106%
viability, T/C [8]: 104%
viability, T/C [9]: 100%
viability, T/C [10]: 97.9%
viability, T/C [11]: 93.7%
viability, T/C [12]: 75.5%
viability, T/C [13]: 106%
viability, T/C [14]: 99.2%
viability, T/C [15]: 101%
viability, T/C [16]: 97.4%
viability, T/C [17]: 87.3%
viability, T/C [18]: 74.9%
viability, T/C [19]: 105%
viability, T/C [20]: 102%
viability, T/C [21]: 99.1%
viability, T/C [22]: 93.5%
viability, T/C [23]: 89.4%
viability, T/C [24]: 74.9%
viability, T/C [25]: 97.1%
viability, T/C [26]: 97%
viability, T/C [27]: 93.5%
viability, T/C [28]: 92.5%
viability, T/C [29]: 86.5%
viability, T/C [30]: 72%
viability, T/C [31]: 97.3%
viability, T/C [32]: 89%
viability, T/C [33]: 91.4%
viability, T/C [34]: 91.9%
viability, T/C [35]: 90.3%
viability, T/C [36]: 68.8%

O=C(Nc1ccc(O)c(NS(=O)(=O)c2ccc(F)cc2)c1)c1ccc(-c2ccccc2)cc1 + Nc1ccc(C#CCN(C(=O)Cc2ncc(C(F)(F)F)cc2C(F)(F)F)c2ccc(F)cc2)nn1
IC50 (second compound 0.0316 µM): > 10 µM
IC50 (second compound 0.1 µM): > 10 µM
IC50 (second compound 0.316 µM): > 10 µM
IC50 (second compound 1 µM): > 10 µM
IC50 (second compound 3.16 µM): > 10 µM
IC50 (second compound 10 µM): > 10 µM
viability, T/C [1]: 99.8%
viability, T/C [2]: 107%
viability, T/C [3]: 99.4%
viability, T/C [4]: 102%
viability, T/C [5]: 105%
viability, T/C [6]: 96.2%
viability, T/C [7]: 101%
viability, T/C [8]: 97.6%
viability, T/C [9]: 99.4%
viability, T/C [10]: 97.6%
viability, T/C [11]: 99.1%
viability, T/C [12]: 102%
viability, T/C [13]: 100%
viability, T/C [14]: 100%
viability, T/C [15]: 99.1%
viability, T/C [16]: 95.1%
viability, T/C [17]: 103%
viability, T/C [18]: 105%
viability, T/C [19]: 102%
viability, T/C [20]: 94.8%
viability, T/C [21]: 104%
viability, T/C [22]: 93%
viability, T/C [23]: 105%
viability, T/C [24]: 99%
viability, T/C [25]: 101%
viability, T/C [26]: 97.7%
viability, T/C [27]: 100%
viability, T/C [28]: 97.4%
viability, T/C [29]: 105%
viability, T/C [30]: 103%
viability, T/C [31]: 97.6%
viability, T/C [32]: 99.7%
viability, T/C [33]: 95%
viability, T/C [34]: 99.1%
viability, T/C [35]: 103%
viability, T/C [36]: 102%
